Measured values taken from PMC8978639, “Fine-tuning of the pharmacological potential of novel thiazolium ionic liquids by anion alteration” (RSC Advances, 2021).
Converted amounts (≈) assume the structure as drawn. Where two headings read alike, the source gives them in different places.

Legend:
[1] = system: S.aureus; set-up: method as in doi:10.1039/b921805j, doi:10.1016/j.molliq.2016.05.093; settings: cited from earlier work
[2] = system: E.coli; set-up: method as in doi:10.1039/b921805j, doi:10.1016/j.molliq.2016.05.093; settings: cited from earlier work
[3] = system: S. aureus (ATCC-25923); experiment: Minimal inhibitory/bactericidal concentrations (MIC/MBC); assay type: cell-based, Staphylococcus aureus; settings: for MBC ± SD / MIC ± SD: S. aureus
Excerpt: (§1) The antimicrobial activity of newly synthesized benzyl thiazolium ionic liquids (BTILs) was investigated in vitro against the most common foodborne bacterial strains (Staphylococcus aureus (S. aureus, ATCC-25923) and Escherichia coli (E. coli, ATCC-25922)) in comparison with clinical drugs (Gentamycin (Gm) and Tetracyclin (TC)). These tests have been conducted in accordance with the standard antimicrobial assessment protocols we've described and used in our previous studies.[29] The diameters of the zone of inhibition (ZOI, mm), values of minimum inhibitory concentration (MIC), and minimal bactericidal concentration (MBC) were used as markers for the antimicrobial efficacy of the tested compounds.
(§2) As evident in Table 2, the results of MIC and MBC are in general accordance with the Well diffusion assay. […] In the literature, quantitative information on the antimicrobial activity of short-chained and benzyl-functionalized ionic liquids is scarce. In this context, few studies have reported the antibacterial impact of 1-alkyl-3-methylimidazolium ionic liquids, bound to different anions, upon various pathogenic bacteria.

[4] = system: E. coli (ATCC-25922); experiment: as above; assay type: cell-based, Escherichia coli
Excerpt: as §1, §2

[5] = system: Staphylococcus aureus (S. aureus, ATCC-25923); experiment: Well diffusion assay (zone of inhibition); assay type: cell-based
Excerpt: as §1, with “These tests have been conducted in accordance with the standard antimicrobial assessment protocols we've described and used in our previous studies.[29]” left out
The antibacterial activities of novel TILs against S. aureus and E. coli were screened in vitro, as compared to clinical antibiotics (Gentamycin (Gm) and Tetracyclin (TC)). […] Gram-negative bacteria' outer membranes, which are composed of impermeable lipopolysaccharides (LPS), phospholipids, and lipoproteins, may act as a barrier to the entry of antimicrobial molecules, whereas Gram-positive bacteria's outer membranes have no LPS layer and are composed only of a thick peptidoglycan layer which can easily absorb and transfer such antimicrobials to the inner cell membrane.[43]

[6] = Thermal stability by TG/DTG; assay type: physicochemical; settings: taken from DTG curves
Method: The thermogravimetric (TG) curves of the room temperature thiazolium ionic liquids (RTTILs) (3a, 4a–c) (Fig. 1A) were employed for the investigation of their thermal stabilities. It is evident that they are thermally stable up to 270 °C and then undergo a sharp degradation phase in the temperature range of 270–350 °C. […] The first main decomposition phase (∼81% weight loss) starts at 323 °C, followed by a modest decomposition stage between 496 and 618 °C. […] The first thermal degradation step begins at 298 °C (∼52% weight loss) and is followed by two smaller degradation steps at 353 and 418 °C, respectively.

[7] = Viscosity by capillary viscometer; assay type: physicochemical; settings: at 50 °C and concentrations 0.5 mg mL^−1, capillary viscometer
Excerpt: Also, the viscosity of new benzyl thiazolium ionic liquids depends on the intrinsic structural features of the cation and anion. […] This behavior can be explained based on the fact that the extremely hydrophobic Tf2N^− anion, enriched with fluorine electrons, exerts higher ion–ion interactions with hydrophobic tert-butylbenzyl-methylthiazolium cation, resulting in an increase in viscosity.[35]

[8] = system: normal human skin fibroblast cells (HSF); experiment: MTT cytotoxicity assay; assay type: cell-based; settings: HSF, MTT, 24 h of treatment
Method: (§3) The antiproliferative activity of novel BTILs was tested in vitro against two cell lines: ovarian cancer (SKOV-3) and normal human skin fibroblast cells (HSF) using the standard MTT cytotoxicity assay described in our previous work.[30] The cell viability ratios, half-maximal inhibitory concentration (IC50), and selectivity index (SI) were used as performance indices for the cytotoxicity of tested compounds. The clinical anticancer drug (cisplatin, CDDP) was used as a positive control.
(§4) To explore the selectivity of the newly synthesized TILs for attacking cancer cells over normal ones, the effects of serial concentrations (0–200 μM) of these TILs on the proliferation of normal human skin fibroblast (HSF) cells were also studied for a period of 24 h. […] For example, treatment of both cell lines with 100 μM of [^iPBzTh][Tf2N] […] [MBzTh][BF4]

[9] = MTT cytotoxicity assay; assay type: cell-based, human; settings: human, normal human skin fibroblast (HSF) cells; 200 μM, 24 h
Method: as §3, §4

[10] = system: ovarian carcinoma cell lines (SKOV-3); experiment: MTT cytotoxicity assay; assay type: cell-based, human; settings: for IC50: SKOV-3, MTT, 24 h of treatment; for Selectivity index (SI): cancer cells (SKOV-3) over normal ones (HSF)
Method: as §3
The use of ionic liquids (ILs) in pharmaceutical and medicinal chemistry has recently piqued the interest of researchers across the globe.[12] In this scenario, several studies have documented the anticancer potential of ILs.[20,48] In order to find potential safe anticancer candidates, the cytotoxicity of imidazolium, ammonium, pyridinium, and phosphonium ILs was tested against over 60 human cancer cell lines.[12,49] […] Besides, the cytotoxicity of ILs is strongly correlated to the counter anion. For instance, the cytotoxicity of 1-alkyl-3-methylimidazolium cation [RMIM]^+ follows the following trend; [RMIM][Tf2N] ≫ [RMIM][BF4] > [RMIM][Cl].[50] To our knowledge, no previous studies have been reported so far for using thiazolium ILs for anticancer purposes. These facts have inspired us to design and study the antiproliferative activity of new thiazolium ILs tethering different anions (BF4 (3a–c) and Tf2N (4a–c)) against ovarian carcinoma cell lines (SKOV-3) and normal human skin fibroblast cells (HSF). The 3-(4,5-dimethylthiazol-2-yl)-2,5-diphenyltetrazolium bromide (MTT) assay was used to carry out this study, with cisplatin (CDDP) serving as a positive control. Initially, the impacts of serial concentrations (2.5–100 μM) of the thiazolium ILs on the viability of the SKOV-3 cell lines were assessed as compared to CDDP. […] In general, TILs bound to Tf2N anion (4a–c) inhibited the proliferation of SKOV-3 cells more effectively than the corresponding tetrafluoroborate analogues (3a–c). For instance, [^iPBzTh][Tf2N] (4b) is the most cytotoxic one and can reduce the SKOV-3 cellular viability to a minimum value (10.5 ± 1.7%, Fig. 5A) at its treatment dosage of 100 μM. Conversely, [MBzTh][BF4]
At definite time intervals, the SKOV-3 cell viability has been measured.

Row | Molecule | MBC ± SD [3] | MIC ± SD [3] | MBC ± SD [4] | MIC ± SD [4] | Zone of inhibition (ZOI) [5] | IC50 [10] | Selectivity index (SI) [10] | IC50 [8] | other results
1 | CCCCCCn1cc[n+](C)c1.O=S(=O)([N-]S(=O)(=O)C(F)(F)F)C(F)(F)F [1-hexyl-3-methylimidazolium bis((trifluoromethyl)sulfonyl)amide] |  |  |  |  |  |  |  |  | MBC [1]: 9.13 mM; MIC [1]: 9.13 mM; MBC [2]: 24.59 mM; MIC [2]: 24.59 mM
2 | Cc1ccc(C[n+]2cscc2C)cc1.[Cl-] [2a, 3-(4-Methylbenzyl)-4-methylthiazol-3-ium chloride] | 4.25 ± 0.31 mM | 4.05 ± 0.29 mM | 12.25 ± 0.36 mM | 6.75 ± 0.35 mM |  |  |  |  | MBC ± SD ([3]; listed as [MBzTh][Cl]): 4.25 mM; MIC ± SD ([3]; listed as [MBzTh][Cl]): 4.05 mM; MBC ± SD ([4]; listed as [MBzTh][Cl]): 12.25 mM; MIC ± SD ([4]; listed as [MBzTh][Cl]): 6.75 mM
3 | Cc1csc[n+]1Cc1ccc(C(C)C)cc1.[Cl-] [2b, 3-(4-Isopropylbenzyl)-4-methylthiazol-3-ium chloride] | 2.35 ± 0.28 mM | 2.35 ± 0.27 mM | 5.25 ± 0.29 mM | 5.25 ± 0.31 mM | 32.13 mm |  |  |  | 
4 | Cc1csc[n+]1Cc1ccc(C(C)(C)C)cc1.[Cl-] [2c, 3-(4-(tert-Butyl)benzyl)-4-methylthiazol-3-ium chloride] | 3.75 ± 0.14 mM | 3.75 ± 0.19 mM | 6.25 ± 0.29 mM | 6.25 ± 0.27 mM |  |  |  |  | 
5 | Cc1ccc(C[n+]2cscc2C)cc1.F[B-](F)(F)F [3a, 3-(4-Methylbenzyl)-4-methylthiazol-3-ium tetrafluoroborate] | 3.25 ± 0.21 mM | 3.25 ± 0.19 mM | 5.75 ± 0.45 mM | 5.75 ± 0.41 mM | 39.21 mm | 78 ± 1.35 µM | 2.28 |  | T dec (decomposition temperature) [6]: 340.3 °C; η (viscosity) [7]: 439.25 ± 5.3 cP; IC50 ([8]; Homo sapiens, Skin fibroblast, 24 h): 178 ± 8.79 µM; viability at 24 h, 200 µM [9]: 45.5 ± 4.1%; Reduction in SKOV-3 viability ([10]; 100 μM, 24 h): 54.6%
6 | Cc1csc[n+]1Cc1ccc(C(C)C)cc1.F[B-](F)(F)F [3b, 3-(4-Isopropylbenzyl)-4-methylthiazol-3-ium tetrafluoroborate] | 2.56 ± 0.15 mM | 2.56 ± 0.13 mM | 6.25 ± 0.23 mM | 5.25 ± 0.29 mM | 41.86 mm | 35.7 ± 1.03 µM | 4.26 | 152 ± 9.15 µM | 
7 | Cc1csc[n+]1Cc1ccc(C(C)(C)C)cc1.F[B-](F)(F)F [3c, 3-(4-(tert-Butyl)benzyl)-4-methylthiazol-3-ium tetrafluoroborate] | 3.12 ± 0.14 mM | 3.12 ± 0.19 mM | 6.50 ± 0.39 mM | 6.50 ± 0.39 mM | 39.02 mm | 51.1 ± 2.33 µM | 3.76 | 191 ± 9.85 µM | 
8 | [NH2][Pt]([NH2])([Cl])[Cl] [CDDP, cisplatin, reference compound] |  |  |  |  |  | 79.5 ± 1.18 µM | 0.73 | 58.3 ± 6.67 µM | SKOV-3 cell viability ([10]; IC50 dose, after 72 h): 10.2 ± 2.7%
9 | CN(C)[C@@H]1C(O)=C(C(N)=O)C(=O)[C@@]2(O)C(O)=C3C(=O)c4c(O)cccc4[C@@](C)(O)[C@H]3C[C@@H]12 [Tetracycline, reference compound] |  |  |  |  |  |  |  |  | MIC ([3]; Staphylococcus aureus, ATCC25923, S. aureus): 7.2 ± 0.66 mM (≈ 3200 µg/mL)
10 | Gentamycin [reference compound] |  |  |  | 6.85 ± 0.63 mM |  |  |  |  | 
